Data: patent US20260308184A1, “SUBSTITUTED PYRIMIDINEDIONE COMPOUNDS, COMPOSITIONS, AND USES THEREOF” (LAKEWOOD AMEDEX, INC., priority 2023, published 2026)

Experiments:
Experiment in all cases: Minimum Inhibitory Concentration, broth microdilution
Format in all cases: cell-based
Settings in all cases: pH 4-5, Mueller Hinton Broth, 18 to 24 hours
[1] = test system: Pseudomonas aeruginosa (6234)
Experimental: (§1) MIC testing is conducted using the broth (Mueller Hinton Broth) microdilution procedures relevant to each organism group as established by the Clinical and Laboratory Standards Institute (CLSI; 3-7). MIC plates are prepared in accordance with CLSI (3-7). To prepare the test plates, automated liquid handlers are used to conduct serial dilutions and liquid transfers. Automated liquid handlers utilized in this study include the Multidrop 384 (Labsystems, Helsinki, Finland) and the Biomek 2000 (Beckman Coulter, Fullerton CA). The solution is diluted to desired pH using 1 M Citric Acid or 1 M NaOH buffer. A standardized inoculum of each test organism is prepared per CLSI methods (3, 5-7) to equal a 0.5 McFarland standard in the appropriate media followed by an additional 1:20 dilution (1:10 for anaerobes).
(§2) The plates are then inoculated with 10 μL of the diluted 0.5 McFarland suspension using the Biomek 2000 from low to high drug concentration, resulting in a final concentration of approximately 5×10^5 CFU/mL per well. An un-inoculated plate is incubated for the purpose of assessing solubility of the drug in the test media. The plates are stacked 3 to 4 high, covered with a sterile lid on the top plate, and incubated for 18 to 24 hours according to CLSI. The MIC is recorded as the lowest concentration of respective compound that inhibited visible growth of the organism.

Escherichia coli (6098) = test system: Escherichia coli (6098)
Experimental: as §1, §2

Escherichia coli (6260) = test system: Escherichia coli (6260)
Experimental: as §1, §2

Escherichia coli (0102) = test system: Escherichia coli (0102)
Experimental: as §1, §2

[2] = test system: Pseudomonas aeruginosa (0103)
Experimental: as §1, §2

[3] = test system: Pseudomonas aeruginosa (6160)
Experimental: as §1, §2

Measured: MIC

Cc1cn([C@H]2C[C@H](O)[C@@H](COP(=O)(O)OCCCCO)O2)c(=O)[nH]c1=O [R-9]
50 mg/mL: [1]
100 mg/mL: all other assays above
